{"source": "patent US9315847B2", "about": "“Automated transient image cytometry” (priority 2009, dated 2016)", "test_system": "NRVMs", "assay": "Toxicity of the nuclear label to NRVMs during dye loading", "format": "cell-based, rat", "conditions": "200 ng/ml in loading solution, 25 minutes", "experimental": "Sensitivity to intracellular calcium kinetics is a desirable goal for automated calcium transient image cytometry because it is desirable to distinguish healthy contractile ESCMs from background non-contractile stem cells. […] The cells were maintained 48 to 72 hrs prior to scanning. On the day of scanning, the cells were incubated with a 3 μM solution of the acetyoxymethylester form of an intracellular calcium indicator (either Fluo-4 AM or Fluo-3 AM) in the base media for 25 minutes. The plasma membrane permeable to the acetoxymethylester forms of Fluo-3 and Fluo-4, which are modified intracellularly by esterases to an impermeable form. The loading solution was also supplemented with 200 ng/ml Hoechst 33342 to label DNA within the nuclei. This concentration of Hoechst provides adequate label of the nuclei and was non-toxic under these conditions. Thus, the labeling procedure introduced a green-fluorescence channel fluorescent calcium indicator into the cytoplasm of the NRVMs (Fluo-4) and a blue-fluorescence channel nuclear stain (Hoechst). The nuclear channel was used for autofocus at each well; additionally, images obtained of the nuclei provided information regarding cellular position that was helpful in assigning boundaries between cells in the segmentation procedure applied to the green-channel images. […]"}
{"smiles": "CCOc1ccc(-c2nc3ccc(-c4nc5ccc(N6CCN(C)CC6)cc5[nH]4)cc3[nH]2)cc1", "note": "[Hoechst 33342]", "values": [{"measurement": "toxicity of the nuclear label under loading conditions", "result": "non-toxic"}]}
